Assay results from patent publication US11266642B2, “Small molecule inhibitors of HLA-DR3 binding for treating autoimmune thyroiditis” (ICAHN SCHOOL OF MEDICINE AT MOUNT SINAI, priority 2015, dated 2022).
Where two headings read alike, the source gives them in different places.

What was measured:
[1] = tested on: HLA-DR2; test: MBP87-99 binding to DR2 expressing cells, flow cytometry (specificity control); assay type: cell-based, human; conditions: biotinylated MBP87-99, 24 hours
[2] = tested on: Interferon (IFN gamma); test: Cytokine production by immunized mice splenocytes (Milliplex/Luminex); assay type: cell-based; conditions: Mus musculus, Splenocyte, 1 μM compound, 48 hours
Experimental: Immunized mice splenocytes were incubated with 1 μM compound Ia together with human thryroglobulin (40 μg/mL) or Tg.2098 (20 μg/mL) to assess the inhibition of cytokines production by compound Ia. […] Milliplex mouse cytokines/chemokine magnetic panel (Catalog no. MCYTOMAG-70K, EMD Millipore Corporation, Billerica, Mass.) was used to assay the cytokines. Splenocytes were plated at 2×10^6 cells per well in 500 uL of medium (RPMI/10% FBS). Supernatants were collected 48 hours after stimulation with hTg or peptides and stored at −80° C. until the assay was performed. To begin the assay, the 96-well plate supplied in the kit was washed with the wash buffer supplied and the plate was shaken for 10 min at room temperature. Standards and quality controls were added, followed by the samples. The pre-mixed beads (IFN gamma, IL-2, IL-4, IL-10) were sonicated and vortexed, and then added to the wells. After shaking the plate overnight at 4° C., the plate was washed twice with wash buffer. Detection antibodies were added for 1 h at room temperature, and Streptavidin-Phycoerythrin was added for 30 min at room temperature. The plate was washed twice and sheath fluid was added to resuspend the beads for 5 min before reading in Luminex 200 with xPONENT software (Luminex, Austin, Tex.) […]

[3] = tested on: T-cell proliferative responses to hTg or Tg.2098; test: In vivo PO administration in hTg-immunized NOD-DR3 mice (EAT), T-cell proliferation CFSE assay; design: species or system mouse; conditions: PO gavage 250 μg on days -2, -1, 5, 6, sacrifice day 21
Text: Mice transgenic for DRB1*0301 were originally generated by G. J Hämmerling and co-workers as previously described [Strauss et al. Immunogenetics 40, 104-108 (1994)]. Briefly, the DR3 (DRA1*0101/DRB1*0301) transgenes were inserted into (C57BL/6×DBA/2) F1 embryos and the progeny were back-crossed to B10.Q mice. The DR3 mice were crossed with I-Aβ knockouts (C57BL/6×129) to obtain mice lacking murine MHC class II and expressing human DR3. The transgenic mouse line was maintained by intercrossing. The background non-MHC genes in the DR3 transgenic line was 50% C57BL/10 genes and 50% contribution from CBA, C57BL/6, and 129 genes. These mice were then back-crossed into NOD background to produce the NOD-DR3 mice [Flynn et al. J Autoimmun, 17, 7-15 (2001)]. The transgene was confirmed to be HLA-DRβ1-Arg74 positive. Mice were bred in a pathogen-free facility (Icahn School of Medicine at Mount Sinai, New York, N.Y.), and expression of HLA-DR3 was tested by PCR using DR3-specific primers: forward primer 5′ CGCTTCGACAGCGAC 3′ (SEQ ID NO:4) and reverse primer 5′ GACAAATCCACACTCCAC 3′ (SEQ ID NO:5). […]
Three female NOD-DR3 mice (6 to 10 weeks old) were fed with 250 μg of Compound Ia PO using gavage on day (−2) and day (−1), followed by SQ immunization of hTg mixed with CFA on day 0. […] Stimulation index was calculated as before.

COc1ccc2cc1Oc1ccc(cc1)C[C@H]1c3c(cc4c(c3Oc3cc5c(cc3OC)CCN(C)[C@@H]5C2)OCO4)CCN1C [Compound Ia, cepharanthine]
block of MBP87-99 binding to DR2 [1]: did not block
inhibition at 1 µM ([2]; Tg.2098 20 μg/mL, p<0.0001, read-out: Interferon inhibition, Tg.2098 stimulation): 48.8%
inhibition at 1 µM ([2]; hTg 40 μg/mL, p=0.002, read-out: Interferon inhibition, hTg stimulation): 38.7%
Stimulation index, T-cell stimulation in response to hTg ([3]; vehicle 1.8 ± 0.2, p=0.0285): 1.0 ± 0.2
Stimulation index, T-cell stimulation in response to Tg.2098 ([3]; vehicle 1.9 ± 0.3, p=0.0147): 0.9 ± 0.1
